The IC50 is the point on the concentration scale where inhibition reaches its midpoint.

Here are results for nine compounds from patent publication US20170313674A1, “BENZYLHYDROXIDE DERIVATIVES, PREPARATION THEREOF AND THERAPEUTIC USE THEREOF” (SANOFI, priority 2014, published 2017).

Some results are limits rather than exact numbers.

For one experiment, the system named is mitochondrial ATP production on non-small cell lung carcinoma cell lines NCI-H460. The experiment is described as follows: Mitochondrial ATP analysis (Cell Titer Glo) in NCI-H460 cells. It counts as cell-based. The following applies: 1-hour incubation, with sodium iodoacetate (100 μM), concentration inhibiting 50% of mitochondrial ATP production, read-out: IC50 (mito ATP). On the procedure:
In order to evaluate the inhibitory activity of the all compounds, an in vitro assay was developed which read out is directly linked to mitochondrial complex 1 inhibition. Since mitochondrial complex 1 contributes to the formation of membrane potential coupled to the mitochondrial ATP synthesis, complex 1 inhibition directly leads in cells to the inhibition of mitochondrial ATP production. Cellular ATP contents were measured in presence of either glycolysis inhibitor (sodium iodocetate) and/or mitochondrial inhibitors (F0F1-ATPase inhibitor: oligomycin or mitochondrial uncoupler: FCCP) to determine the ATP production part relying either on glycolytic or on mitochondrial metabolism.
Mitochondrial ATP Analysis
The compounds of the invention were evaluated for their ability to inhibit mitochondrial
ATP was measured using the Promega Cell Titer Glo kit and protocol. In summary, 1,000 cells were plated in 40 μL in a 384 well plate. 24 hours later, medium was replaced by 20 μl culture medium in presence of compounds: cells were treated in replicates of five with control (PBS), oligomycin A (10 μg/ml), FCCP (30 μM), or the compounds of the invention in dose effect both alone or in combination with sodium iodoacetate (100 μM). Following a 1-hour incubation, 20 μL of CellTtiter-glo™ reaction mix were added to each well for a final volume of 40 μL. Plates were then analyzed for luminescence with a Perkin Elmer EnVision. By comparing the different conditions, global ATP and percentages of both glycolytic and mitochondrial ATP were determined.
The mitochondrial ATP production was calculated as the remaining ATP under iodoacetate treatment minus basal ATP (ATP content under iodoacetate and oligomycin treatment). Inhibitory activity of the compounds on mitochondrial ATP in NCI-H460 cells is expressed as the concentration needed to inhibit 50% of mitochondrial ATP production (IC50, M).
On the technique in general: ATP-based viability assays read luminescence as a measure of living cells.
Regarding `COc1ccc(C(O)COc2ccc(-c3nc(C)c(-c4ccc(OCC(O)c5ccc(OC)c(OC)c5)cc4)o3)cc2)cc1OC` (single isomer, unassigned) [Compound I-5, 1-(3,4-dimethoxyphenyl)-2-[4-[2-[4-[2-(3,4-dimethoxyphenyl)-2-hydroxy-ethoxy]phenyl]-4-methyl-oxazol-5-yl]phenoxy]ethanol], the IC50 was found to be 8270 nM.

As for `COc1ccc(C(O)COc2ccc(-c3csc(-c4ccc(OCC(O)c5ccc(OC)c(OC)c5)cc4)n3)cc2)cc1OC` (single isomer, unassigned) [Compound I-23, 1-(3,4-dimethoxyphenyl)-2-[4-[2-[4-[2-(3,4-dimethoxyphenyl)-2-hydroxy-ethoxy]phenyl]thiazol-4-yl]phenoxy]ethanol], the IC50 came to 197 nM. On the same count and under the same terms, as for `COc1ccc(C(O)COc2ccc(-c3nsc(-c4ccc(OCC(O)c5ccc(OC)c(OC)c5)cc4)n3)cc2)cc1OC` (single isomer, unassigned) [Compound I-41, 1-(3,4-dimethoxyphenyl)-2-[4-[5-[4-[2-(3,4-dimethoxyphenyl)-2-hydroxy-ethoxy]phenyl]-1,2,4-thiadiazol-3-yl]phenoxy]ethanol], the figure is 539 nM. The same measure, in the same setting: as for `COc1ccc(C(O)COc2ccc(-c3csc(-c4ccc(OCC(O)c5ccc(OC)c(OC(F)F)c5)cc4)n3)cc2)cc1OC(F)F` (single isomer, unassigned) [Compound I-49, 1-[3-(difluoromethoxy)-4-methoxy-phenyl]-2-[4-[2-[4-[2-[3-(difluoromethoxy)-4-methoxy-phenyl]-2-hydroxy-ethoxy]phenyl]thiazol-4-yl]phenoxy]ethanol], the figure is > 10000 nM; as for `COc1ccc(C(O)COc2ccc(-c3csc(-c4ccc(OCC(O)c5ccc(OC)c(OC(F)F)c5)cc4)n3)cc2)cc1OC(F)F` (single isomer, unassigned) [Compound I-50, 1-[3-(difluoromethoxy)-4-methoxy-phenyl]-2-[4-[2-[4-[2-[3-(difluoromethoxy)-4-methoxy-phenyl]-2-hydroxy-ethoxy]phenyl]thiazol-4-yl]phenoxy]ethanol], 1340 nM.

The same experiment, now with this note: Homo sapiens, NCI-H460, 1 h, 1-hour incubation, with sodium iodoacetate (100 μM), concentration inhibiting 50% of mitochondrial ATP production, read-out: IC50 (mito ATP).
Regarding `COc1ccc(C(O)C(C)(C)Oc2ccc(-c3csc(-c4ccc(OC(C)(C)C(O)c5ccc(OC)c(OC)c5)cc4)n3)cc2)cc1OC` (single isomer, unassigned) [Compound I-28, 1-(3,4-dimethoxyphenyl)-2-[4-[2-[4-[2-(3,4-dimethoxyphenyl)-2-hydroxy-1,1-dimethyl-ethoxy]phenyl]thiazol-4-yl]phenoxy]-2-methyl-propan-1-ol], the IC50 came to 41.8 nM. Take `COc1ccc(C(O)COc2ccc(-c3nsc(-c4ccc(OCC(O)c5ccc(OC)c(OC)c5)cc4)n3)cc2)cc1OC` (single isomer, unassigned) [Compound I-40, 1-(3,4-dimethoxyphenyl)-2-[4-[5-[4-[2-(3,4-dimethoxyphenyl)-2-hydroxy-ethoxy]phenyl]-1,2,4-thiadiazol-3-yl]phenoxy]ethanol]: the IC50 stood at 281 nM. The same measure, in the same setting: the figure for `COc1ccc(C(O)COc2ccc(-c3nc(C)c(-c4ccc(OCC(O)c5ccc(OC)c(OC)c5)cc4)o3)cc2)cc1OC` (single isomer, unassigned) [Compound I-46, 1-(3,4-dimethoxyphenyl)-2-[4-[2-[4-[2-(3,4-dimethoxyphenyl)-2-hydroxy-ethoxy]phenyl]-4-methyl-oxazol-5-yl]phenoxy]ethanol] is > 10000 nM; for `COc1cc(C(O)COc2ccc(-c3csc(-c4ccc(OCC(O)c5ccc(OC(F)F)c(OC)c5)cc4)n3)cc2)ccc1OC(F)F` (single isomer, unassigned) [Compound I-51, 1-[4-(difluoromethoxy)-3-methoxy-phenyl]-2-[4-[2-[4-[2-[4-(difluoromethoxy)-3-methoxy-phenyl]-2-hydroxy-ethoxy]phenyl]thiazol-4-yl]phenoxy]ethanol] it is > 10000 nM.
